Experiments:
[1] = tested on: M. tuberculosis parental, sdh1 and sdh2 mutant strains
[2] = tested on: M. tuberculosis Δsdh1 mutant; assay type: cell-based; conditions: aerobic, at two and five days
[3] = tested on: INH-resistant M. tuberculosis strains (H37Rv inhA S94A, H37Rv PmabAinhA c-15t, H37Rv katG g371del); assay type: cell-based, Mycobacterium tuberculosis
[4] = tested on: M. tuberculosis Δsdh1 or Δsdh2 mutants; assay type: cell-based; conditions: hypoxic conditions
[5] = tested on: M. tuberculosis H37Rv rpoB H445R; assay type: cell-based, Mycobacterium tuberculosis
M. tuberculosis H37Rv = assay type: cell-based, Mycobacterium tuberculosis

## N#CC(C#N)=NNc1cccc(Cl)c1 [CCCP, carbonyl cyanide 3-chlorophenylhydrazone]
[1]
  time after which culture was unable to be rescued: 22 to 24 days
  viable cells at end of experiment: no viable cells remained
[1]; Mycobacterium tuberculosis
  parental inoculum remaining viable: 0.1%

## CC[C@@H](CO)NCCN[C@@H](CC)CO [EMB, Ethambutol, reference compound]
[2]
  clearing of the Δsdh1 mutant by single drugs vs parental: this was not true

## CCc1cc(C(N)=S)ccn1 [ETH]
[2]
  clearing of the Δsdh1 mutant by single drugs vs parental: cleared more rapidly

## NNC(=O)c1ccncc1 [INH, Isoniazid]
[3]
  growth of INH-resistant strains: not impaired
[4]
  killing of Δsdh1 or Δsdh2 mutants compared to the parental strain: no effect
[2]
  clearing of the Δsdh1 mutant by single drugs vs parental: this was not true

## CN[C@@H]1[C@H](O[C@H]2[C@H](O[C@H]3[C@H](O)[C@@H](O)[C@H](N=C(N)N)[C@@H](O)[C@@H]3N=C(N)N)O[C@@H](C)[C@]2(O)C=O)O[C@@H](CO)[C@H](O)[C@H]1O [STR]
[2]
  clearing of the Δsdh1 mutant by single drugs vs parental: this was not true

## N[C@@H](CS)C(=O)O [cysteine]
[5]
  growth of H37Rv rpoB H445R: grew well
[3]
  growth of INH-resistant strains: not impaired
M. tuberculosis H37Rv
  Frequency of mutation for INH, Average: 7 × 10^−7
  Frequency of mutation for RIF: 2 × 10^−8
  Frequency of mutation for RIF, Average: 2 × 10^−8
  decrease in the frequency of spontaneous INH-resistant mutants: ≤ 10 fold
  decrease in the frequency of spontaneous RIF-resistant mutants: 3 fold
